Measurements published in publication PMC6572064, “Discovery of 2-(1-(3-(4-Chloroxyphenyl)-3-oxo- propyl)pyrrolidine-3-yl)-1H-benzo[d]imidazole-4-carboxamide: A Potent Poly(ADP-ribose) Polymerase (PARP) Inhibitor for Treatment of Cancer” (Molecules, 2019).
Like-named read-outs stand apart in the source and are kept apart here.

What was measured:
PARP-1 = molecular target: T1, PARP-1 (Homo sapiens, UniProt P09874); assay: PARP-1 inhibition assay (PARP-1 Chemiluminescent Assay Kit, BPS Bioscience); format: biochemical; conditions: 10 nM compound
T1 construct: purchased BPS Bioscience 80569
T1 sequence (P09874 whole entry): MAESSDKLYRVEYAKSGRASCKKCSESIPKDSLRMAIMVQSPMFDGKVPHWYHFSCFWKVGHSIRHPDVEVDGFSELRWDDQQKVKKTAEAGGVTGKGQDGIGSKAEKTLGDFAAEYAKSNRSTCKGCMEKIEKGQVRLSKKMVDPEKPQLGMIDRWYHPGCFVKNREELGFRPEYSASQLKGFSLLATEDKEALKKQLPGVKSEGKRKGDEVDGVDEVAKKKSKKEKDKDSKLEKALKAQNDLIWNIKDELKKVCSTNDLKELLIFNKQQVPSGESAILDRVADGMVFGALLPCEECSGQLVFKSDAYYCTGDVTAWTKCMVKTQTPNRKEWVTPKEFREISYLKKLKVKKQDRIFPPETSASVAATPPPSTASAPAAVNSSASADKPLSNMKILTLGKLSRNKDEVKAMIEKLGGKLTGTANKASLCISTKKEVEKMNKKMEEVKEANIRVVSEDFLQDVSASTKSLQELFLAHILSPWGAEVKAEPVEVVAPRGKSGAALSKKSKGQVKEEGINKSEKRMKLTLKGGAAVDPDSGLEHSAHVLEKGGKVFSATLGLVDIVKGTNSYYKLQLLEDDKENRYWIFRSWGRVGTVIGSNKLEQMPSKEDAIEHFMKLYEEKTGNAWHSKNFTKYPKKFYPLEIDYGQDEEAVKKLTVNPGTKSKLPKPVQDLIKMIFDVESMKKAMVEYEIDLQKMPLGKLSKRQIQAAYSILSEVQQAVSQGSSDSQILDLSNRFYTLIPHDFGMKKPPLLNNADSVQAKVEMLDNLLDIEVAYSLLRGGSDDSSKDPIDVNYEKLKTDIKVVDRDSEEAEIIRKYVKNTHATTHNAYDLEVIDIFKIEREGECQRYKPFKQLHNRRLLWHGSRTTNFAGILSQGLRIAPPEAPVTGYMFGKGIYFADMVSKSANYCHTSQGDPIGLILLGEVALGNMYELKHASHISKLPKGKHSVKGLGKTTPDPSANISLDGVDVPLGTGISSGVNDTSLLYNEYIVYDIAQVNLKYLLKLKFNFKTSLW
Description: (§1) The PARP-1 and PARP-2 inhibition assays were performed in outsourcing, by a CRO company, Shanghai Medicilon Inc. (Shanghai, China). […] Briefly, PARP-1 or PARP-2 biotinylated substrate was incubated with compounds or solvent control at varying concentrations and an assay buffer containing the PARP-1 or PARP-2 enzyme.

PARP-2 = molecular target: T2, PARP-2 (Homo sapiens, UniProt Q9UGN5); assay: PARP-2 inhibition assay (PARP-2 Chemiluminescent Assay Kit, BPS Bioscience); format: biochemical; conditions: 10 nM compound
T2 construct: purchased BPS Bioscience 80552
T2 sequence (Q9UGN5 whole entry): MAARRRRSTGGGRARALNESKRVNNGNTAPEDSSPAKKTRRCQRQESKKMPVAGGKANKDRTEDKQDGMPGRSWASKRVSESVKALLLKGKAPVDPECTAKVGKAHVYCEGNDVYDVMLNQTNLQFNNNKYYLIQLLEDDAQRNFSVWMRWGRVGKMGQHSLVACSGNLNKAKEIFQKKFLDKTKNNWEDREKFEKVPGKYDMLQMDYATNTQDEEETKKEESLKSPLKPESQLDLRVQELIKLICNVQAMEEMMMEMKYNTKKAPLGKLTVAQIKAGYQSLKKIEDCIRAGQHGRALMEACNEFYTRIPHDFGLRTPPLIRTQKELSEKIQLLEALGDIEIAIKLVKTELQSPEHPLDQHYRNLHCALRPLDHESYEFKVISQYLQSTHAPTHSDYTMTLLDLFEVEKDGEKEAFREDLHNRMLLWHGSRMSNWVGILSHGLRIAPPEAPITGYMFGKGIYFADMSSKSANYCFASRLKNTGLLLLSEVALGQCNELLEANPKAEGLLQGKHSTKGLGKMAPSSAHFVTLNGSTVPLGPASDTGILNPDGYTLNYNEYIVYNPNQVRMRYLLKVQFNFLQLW
Description: as §1

[1] = test system: MDA-MB-436 (a BRCA-1-mutated breast cancer cell line); assay: Cell proliferation assay, three-day, CellTiter-Glo, MDA-MB-436; format: cell-based; conditions: Homo sapiens; for inhibition at 0.00508 µM: MDA-MB-436, MDA-MB-436, Conc. 0.00508 uM; for inhibition at 0.0152 µM: MDA-MB-436, MDA-MB-436, Conc. 0.0152 uM; for inhibition at 0.0457 µM: MDA-MB-436, MDA-MB-436, Conc. 0.0457 uM; for inhibition at 0.41 µM: MDA-MB-436, MDA-MB-436, Conc. 0.41 uM; for inhibition at 1.23 µM: MDA-MB-436, MDA-MB-436, Conc. 1.23 uM; for inhibition at 3.7 µM: MDA-MB-436, MDA-MB-436, Conc. 3.70 uM; for inhibition at 11.11 µM: MDA-MB-436, MDA-MB-436, Conc. 11.11 uM; for inhibition at 33.33 µM: MDA-MB-436, MDA-MB-436, Conc. 33.33 uM; for inhibition at 100 µM: MDA-MB-436, MDA-MB-436, Conc. 100.00 uM; for IC50: MDA-MB-436, 72 h, CellTiter-Glo, read-out: MDA-MB-436 IC50
Summary of the method: (§2)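 Cells seeded overnight in 384-well plates, then exposed to compounds (DMSO stock diluted in medium) for 72 h at 37 °C, 5% CO2. Viability read as CellTiter-Glo luminescence after 60 min at room temperature.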

[2] = test system: CAPAN-1 (a BRCA-2-mutated pancreatic cancer cell line); assay: Cell proliferation assay, three-day, CellTiter-Glo, CAPAN-1; format: cell-based; conditions: Homo sapiens; for IC50: CAPAN-1, 72 h, CellTiter-Glo, read-out: CAPAN-1 IC50; for inhibition at 0.00508 µM: CAPAN-1, Conc. 0.00508 uM; for inhibition at 0.0152 µM: CAPAN-1, Conc. 0.0152 uM; for inhibition at 0.0457 µM: CAPAN-1, Conc. 0.0457 uM; for inhibition at […]: CAPAN-1, Conc. 0.14 uM; for inhibition at 0.41 µM: CAPAN-1, Conc. 0.41 uM; for inhibition at 1.23 µM: CAPAN-1, Conc. 1.23 uM; for inhibition at 3.7 µM: CAPAN-1, Conc. 3.70 uM; for inhibition at 11.11 µM: CAPAN-1, Conc. 11.11 uM; for inhibition at 33.33 µM: CAPAN-1, Conc. 33.33 uM; for inhibition at 100 µM: CAPAN-1, Conc. 100.00 uM
Summary of the method: as §2

[3] = supplement sheet, read-out: 10 nM inhibition% PAPR-1
[4] = read-out: PARP-1 Inhibition % (10 nM)
[5] = supplement sheet, read-out: 10 nM inhibition% PAPR-2
[6] = read-out: PARP-2 Inhibition % (10 nM)

Molecule `NCCN1CCC(c2nc3c(C(N)=O)cccc3[nH]2)C1` (stereo not shown) [Compound 5cm, 2-(1-(2-Aminoethyl)pyrrolidin-3-yl)-1H-benzo[d]imidazole-4-carboxamide] has an inhibition at 0.01 µM (PARP-1; [3]) of 24.8%, an inhibition at 0.01 µM (PARP-1; [4]) of 24.8% and an inhibition at 0.01 µM (PARP-2; [5]) of 32.8%. The inhibition at 0.01 µM (PARP-2; [6]) was 32.8%, the inhibition at 0.00508 µM ([1]; replicate 1, read-out: Inh % 1) was -8.5% and the inhibition at 0.00508 µM ([1]; replicate 2, read-out: Inh % 2) was -9.3%. The inhibition at 0.0152 µM ([1]; replicate 1, read-out: Inh % 1) was 1.1%, the inhibition at 0.0152 µM ([1]; replicate 2, read-out: Inh % 2) was -4.9% and the inhibition at 0.0457 µM ([1]; replicate 1, read-out: Inh % 1) was -11.2%. It also gave an inhibition at 0.0457 µM ([1]; replicate 2, read-out: Inh % 2) of -10.5%, an inhibition at 0.41 µM ([1]; replicate 1, read-out: Inh % 1) of -6.2% and an inhibition at 0.41 µM ([1]; replicate 2, read-out: Inh % 2) of -16.8%. The inhibition at 1.23 µM ([1]; replicate 1, read-out: Inh % 1) was -5.3%, the inhibition at 1.23 µM ([1]; replicate 2, read-out: Inh % 2) was -11.1% and the inhibition at 3.7 µM ([1]; replicate 1, read-out: Inh % 1) was -4.9%. The inhibition at 3.7 µM ([1]; replicate 2, read-out: Inh % 2) was -6.8%, the inhibition at 11.11 µM ([1]; replicate 1, read-out: Inh % 1) was -3.6% and the inhibition at 11.11 µM ([1]; replicate 2, read-out: Inh % 2) was -6.5%. For the same molecule, the inhibition at 33.33 µM ([1]; replicate 1, read-out: Inh % 1) was 3%, the inhibition at 33.33 µM ([1]; replicate 2, read-out: Inh % 2) was -4.3% and the inhibition at 100 µM ([1]; replicate 1, read-out: Inh % 1) was 16.7%. It also gave an inhibition at 100 µM ([1]; replicate 2, read-out: Inh % 2) of 7.9%, an IC50 [1] greater than 100 µM and an IC50 [2] greater than 100 µM. For the same molecule, the inhibition at 0.00508 µM ([2]; replicate 1, read-out: Inh % 1) was -3.2%, the inhibition at 0.00508 µM ([2]; replicate 2, read-out: Inh % 2) was 4.5% and the inhibition at 0.0152 µM ([2]; replicate 1, read-out: Inh % 1) was -3%. It also gave an inhibition at 0.0152 µM ([2]; replicate 2, read-out: Inh % 2) of -13.2%, an inhibition at 0.0457 µM ([2]; replicate 1, read-out: Inh % 1) of -3.1% and an inhibition at 0.0457 µM ([2]; replicate 2, read-out: Inh % 2) of -9.3%. The inhibition at […] ([2]; replicate 1, read-out: Inh % 1) was 0.182%, the inhibition at […] ([2]; replicate 2, read-out: Inh % 2) was -8.2% and the inhibition at 0.41 µM ([2]; replicate 1, read-out: Inh % 1) was 4%. The inhibition at 0.41 µM ([2]; replicate 2, read-out: Inh % 2) was -2.2%, the inhibition at 1.23 µM ([2]; replicate 1, read-out: Inh % 1) was -2.5% and the inhibition at 1.23 µM ([2]; replicate 2, read-out: Inh % 2) was -0.9%. For the same molecule, the inhibition at 3.7 µM ([2]; replicate 1, read-out: Inh % 1) was 0.8%, the inhibition at 3.7 µM ([2]; replicate 2, read-out: Inh % 2) was 2.3% and the inhibition at 11.11 µM ([2]; replicate 1, read-out: Inh % 1) was -3.4%. The inhibition at 11.11 µM ([2]; replicate 2, read-out: Inh % 2) was 4.2%, the inhibition at 33.33 µM ([2]; replicate 1, read-out: Inh % 1) was -1.1% and the inhibition at 33.33 µM ([2]; replicate 2, read-out: Inh % 2) was -7.7%. For the same molecule, the inhibition at 100 µM ([2]; replicate 1, read-out: Inh % 1) was 0.459% and the inhibition at 100 µM ([2]; replicate 2, read-out: Inh % 2) was -6%.
For `NC(=O)c1cccc2[nH]c(C3CCN(CCCNC(=O)c4ccccc4)C3)nc12` (stereo not shown) [Compound 5cn, 2-(1-(3-Benzamidopropyl)pyrrolidin-3-yl)-1H-benzo[d]imidazole-4-carboxamide], the inhibition at 0.01 µM (PARP-1; [3]) was 19.4%, the inhibition at 0.01 µM (PARP-1; [4]) was 19.4% and the inhibition at 0.01 µM (PARP-2; [5]) was 39.1%. The inhibition at 0.01 µM (PARP-2; [6]) was 39.1%, the inhibition at 0.00508 µM ([1]; replicate 1, read-out: Inh % 1) was 1.6% and the inhibition at 0.00508 µM ([1]; replicate 2, read-out: Inh % 2) was -5.1%. It also gave an inhibition at 0.0152 µM ([1]; replicate 1, read-out: Inh % 1) of -1.4%, an inhibition at 0.0152 µM ([1]; replicate 2, read-out: Inh % 2) of -3.5% and an inhibition at 0.0457 µM ([1]; replicate 1, read-out: Inh % 1) of -9.2%. It also gave an inhibition at 0.0457 µM ([1]; replicate 2, read-out: Inh % 2) of -11%, an inhibition at 0.41 µM ([1]; replicate 1, read-out: Inh % 1) of -8.3% and an inhibition at 0.41 µM ([1]; replicate 2, read-out: Inh % 2) of -13.4%. It also gave an inhibition at 1.23 µM ([1]; replicate 1, read-out: Inh % 1) of -3%, an inhibition at 1.23 µM ([1]; replicate 2, read-out: Inh % 2) of -5.3% and an inhibition at 3.7 µM ([1]; replicate 1, read-out: Inh % 1) of -5.2%. The inhibition at 3.7 µM ([1]; replicate 2, read-out: Inh % 2) was -8.2%, the inhibition at 11.11 µM ([1]; replicate 1, read-out: Inh % 1) was -2.1% and the inhibition at 11.11 µM ([1]; replicate 2, read-out: Inh % 2) was -9.2%. For the same molecule, the inhibition at 33.33 µM ([1]; replicate 1, read-out: Inh % 1) was 12.1%, the inhibition at 33.33 µM ([1]; replicate 2, read-out: Inh % 2) was 1.5% and the inhibition at 100 µM ([1]; replicate 1, read-out: Inh % 1) was 21.7%. For the same molecule, the inhibition at 100 µM ([1]; replicate 2, read-out: Inh % 2) was 20.8%, the IC50 [1] was greater than 100 µM and the IC50 [2] was greater than 100 µM. For the same molecule, the inhibition at 0.00508 µM ([2]; replicate 1, read-out: Inh % 1) was 9.5%, the inhibition at 0.00508 µM ([2]; replicate 2, read-out: Inh % 2) was -3.8% and the inhibition at 0.0152 µM ([2]; replicate 1, read-out: Inh % 1) was -9.3%. It also gave an inhibition at 0.0152 µM ([2]; replicate 2, read-out: Inh % 2) of -9.4%, an inhibition at 0.0457 µM ([2]; replicate 1, read-out: Inh % 1) of 1% and an inhibition at 0.0457 µM ([2]; replicate 2, read-out: Inh % 2) of 6.5%. For the same molecule, the inhibition at […] ([2]; replicate 1, read-out: Inh % 1) was 4.6%, the inhibition at […] ([2]; replicate 2, read-out: Inh % 2) was -10% and the inhibition at 0.41 µM ([2]; replicate 1, read-out: Inh % 1) was -2.8%. For the same molecule, the inhibition at 0.41 µM ([2]; replicate 2, read-out: Inh % 2) was -4.1%, the inhibition at 1.23 µM ([2]; replicate 1, read-out: Inh % 1) was 3.1% and the inhibition at 1.23 µM ([2]; replicate 2, read-out: Inh % 2) was -3.2%. It also gave an inhibition at 3.7 µM ([2]; replicate 1, read-out: Inh % 1) of 5.2%, an inhibition at 3.7 µM ([2]; replicate 2, read-out: Inh % 2) of -3% and an inhibition at 11.11 µM ([2]; replicate 1, read-out: Inh % 1) of 2.8%. The inhibition at 11.11 µM ([2]; replicate 2, read-out: Inh % 2) was -7.6%, the inhibition at 33.33 µM ([2]; replicate 1, read-out: Inh % 1) was 5.2% and the inhibition at 33.33 µM ([2]; replicate 2, read-out: Inh % 2) was 2%. For the same molecule, the inhibition at 100 µM ([2]; replicate 1, read-out: Inh % 1) was 27.8% and the inhibition at 100 µM ([2]; replicate 2, read-out: Inh % 2) was 14.3%.
